# Measured values published in patent US5763596A, “C-4' modified adenosine kinase inhibitors” (Metabasis Therapeutics, Inc., priority 1996, dated 1998).
# How the values were obtained:
# male SA rats [1] = assay: anticonvulsant activity, maximal electroshock (MES) model; type: in vivo; conditions: Rattus norvegicus, ip, 1 h before MES; >5 / <5: fewer / more than 50% of animals inhibited at 5 mg/kg in initial screen
# Experimental: The anticonvulsant activity of the tested compounds was evaluated in male SA rats (100-150 g, Simonsen) using the maximal electroshock (MES) model described in Swinyard et al., Antiepileptic Drugs, 3d Ed. at 85-102 (Levy, et al., eds.), NY: Raven Press (1989). The rats were maintained on a 12/12 light/dark cycle in temperature controlled facilities with free access to food and water. For p.o. administration, the animals are fasted overnight, prior to the experiment. One hour prior to seizure testing, the animals were injected interperitoneally (ip) or orally (per os, po) with one of various doses of test compound dissolved in DMSO or PEG 400.
# Maximal electroshock seizures (MES) were induced by administering a 150 mA, 60 Hz current for 0.2 seconds via corneal electrodes using a Wahlquist Model H stimulator. […] This endpoint was expressed as the percentage of animals in which the response was inhibited. Typically, compounds were screened initially at one hour following a dose of 5 mg/kg ip. […] The results for exemplary compounds of the invention are set forth in Table 8, expressed as ED50 values.
# Rats = assay: anti-inflammatory activity, carrageenan paw; type: in vivo, rat; conditions: 10 mg/kg, swelling after 3 hours
# Experimental: Carrageenan (Type λ) was suspended in sterile PBS at 1% (w/v), autoclaved for 30 minutes, and stored at room temperature. Rats were pretreated with vehicle or AK inhibitor (10 mg/kg) by oral gavage or i.p. administration and the volume of the left hind paw was measured using a water displacement plethysmometer (Stoelting Co., Wood Dale, Ill.). One hour after oral treatment or 30 minutes after i.p. treatment, the rats were briefly anaesthetized, and 0.1 ml of the carrageenan solution was injected subcutaneously into the planar surface of the left hind paw. The ensuing paw swelling was measured by plethysmometry after 3 hours. The paw volume in milliliters was subtracted from the pre-injection paw volume. Data are presented in Table 8 as the percent inhibition of paw swelling in AK inhibitor treated animals, compared to vehicle treated control animals.
# Female SA rats = assay: liver toxicity, serum SGOT, SGPT and total bilirubin; type: in vivo, rat; design: unit not given here; conditions: 2 x 37.5 μmol/kg i.v. infusion (total 75 μmol/kg), 12 h after second dose
# Experimental: Female SA rats (150-200 g) were anesthetized with halothane and cannulated via the internal jugular vein. The animals were allowed to recover for 3 days. […] Twelve hours later, an additional 37.5 μmol kg was infused over 40 minutes (total dose=75 μmol/kg). Twelve hours after the second dose, the animals were anesthetized with halothane and exsanguinated through the descending aorta. Serum was prepared and liver enzymes (serum glutamic-oxaloacetic transaminase (SGOT), serum glutamic-pyruvic transaminase (SGPT)) and total bilirubin in the serum samples were determined by a commercial laboratory.
# male SA rats [2] = assay: rat skin lesion model, inhibition of neutrophil accumulation induced by carrageenan; type: in vivo
# Experimental: The dorsal skin of male SA rats was shaved and carrageenan (Type λ) or phosphate-buffered saline was injected intradermally. Three hours later, the injection sites were biopsied and weighed. Neutrophil content of the skin biopsies was measured as the quantity of myeloperoxidase (MPO) present in a tissue homogenate. The excised, weighed skin pieces were placed in 4 ml 0.5% mixed alkyl trimethylammonium bromide and homogenized at the highest speed for 15 seconds in a Polytron homogenizer (Brinkmann Instruments, Westbury, N.Y.). Lipids were extracted by adding 1 ml of dichloromethane to the homogenate, vortexing vigorously, and centrifuging at 1000 g, 5° C. for 15 min. Fifty μl of each supernatant was added in duplicate to a 96 well assay plate, along with dilutions of human myeloperoxidase standard. Potassium phosphate buffer (pH 6.1) containing 0.36 mg/ml of o-dianisidine dihydrochloride and 0.001% hydrogen peroxide was added (200 μl/well), and the absorbance at 450 nm was read after 5 min incubation at room temperature. The myeloperoxidase content of each skin piece was calculated from a standard curve constructed using least-square regression, and expressed as units of MPO/g of tissue.
# AK inhibitors were administered orally using polyethylene glycol-400 as vehicle or intraperitoneally using dimethylsulfoxide as vehicle, at indicated time before skin lesion injection. For each experiment, the average of all values from saline-induced lesions was calculated. This baseline value was then subtracted from values obtained from carrageenan-induced lesions. Percent inhibition for AK inhibitors were calculated from these baseline-corrected values.
# Rats (male, Simonsen) = assay: formalin paw model; type: in vivo, rat; design: concentration or dose not given beside the values; conditions: oral, 90 min before formalin
# Experimental: In this assay, injection of formalin, an irritant, into the hindpaw of rats typically evokes a biphasic response of pain-related behaviors. Phase 1 of the response which is brief, lasting approximately 0-5 min post-injection,is followed by a more prolonged phase 2, lasting approximately 10-80 min post-injection. Phase 1 behavior is thought to be a direct effect of the irritant on nociceptors at the injection site while phase 2 behavior is thought to include a hyperalgesic component mediated by sensitization of neuronal elements within the spinal cord. Studies from other laboratories have found the first portion of Phase 2 (sometimes referred to as Phase 2a) to be most responsive to pharmacological manipulation.
# Rats (male, Simonsen) weighing between 100-200 g, are used in the present experiments. For screening purposes drugs are administered orally 90 min prior to initiation of formalin test. At designated intervals the animals in groups of 4 are placed individually in a small animal restrainer with the right hindpaw accessible through a hole in the bottom of the restrainer. The formalin paw assay is initiated by the injection using a 30G needle of 50 μl of a 5% formalin solution in saline into the right plantar surface of each hindpaw. The rat is then immediately placed in a separate plexiglass box and scoring (described below) of the animal's behavior is begun at 1.7 min after formalin injection. The instantaneous behavior of each animal in a group of 4 was observed and assigned a score once in each 20 second interval. This sequence is repeated over a 30 min period. The scoring protocol is an adaptation of the method published by Dubuisson and Dennis (Pain 4:161-174, 1977) which assigns a score from 0-3 as follows:
# 0--no discernible favoring of injected paw, weight evenly distributed
# 1--injected paw is favored, rests lightly on floor
# 2--injected paw is elevated
# 3--injected paw is vigorously licked, bitten or shake
# Scores are continuously recorded directly onto an Excel spreadsheet. […] 2) the total number of incidences specifically of licking/biting behavior is summed over Phase 2 and mean values determined from 6 different animals with results expressed as % inhibition compared to vehicle control.
structure (smiles),measurement,setting,value
O[C@@H]1[C@H](O)CO[C@H]1n1cc(-c2ccccc2)c2c(Nc3ccc(F)cc3)ncnc21 [compound 28],ED50 at 5 mg/kg,male SA rats [1],< 5 mg/kg
same,Carrageenan Paw (% inh) i.p.,"Rats; i.p., 30 min before carrageenan",52%
same,Carrageenan Paw (% inh) p.o.,"Rats; p.o., 1 h before carrageenan",25%
same,average serum Total Bilirubin,Female SA rats,0.07
same,average serum content of SGOT,Female SA rats,61
same,average serum content of SGPT,Female SA rats,23
same,% inhibition of neutrophil accumulation,"male SA rats [2]; i.p., pretreatment 30 min, 3 mg/kg",18%
same,% inhibition of neutrophil accumulation,"male SA rats [2]; i.p., pretreatment 30 min, 10 mg/kg",62%
same,% inhibition of neutrophil accumulation,"male SA rats [2]; i.p., pretreatment 30 min, 30 mg/kg",79%
same,% inhibition of neutrophil accumulation,"male SA rats [2]; i.p., pretreatment 60 min, 10 mg/kg",49%
same,% inhibition of neutrophil accumulation,"male SA rats [2]; i.p., pretreatment 120 min, 10 mg/kg",60%
same,% inhibition of neutrophil accumulation,"male SA rats [2]; i.p., pretreatment 240 min, 10 mg/kg",28%
same,% inhibition of neutrophil accumulation,"male SA rats [2]; p.o., pretreatment 60 min, 10 mg/kg",28%
same,% inhibition of neutrophil accumulation,"male SA rats [2]; p.o., pretreatment 60 min, 20 mg/kg",40%
same,% inhibition of neutrophil accumulation,"male SA rats [2]; p.o., pretreatment 120 min, 20 mg/kg",84%
same,% inhibition of neutrophil accumulation,"male SA rats [2]; p.o., pretreatment 240 min, 20 mg/kg",77%
same,% inhibition of neutrophil accumulation,"male SA rats [2]; p.o., pretreatment 420 min, 20 mg/kg",20%
same,% Inhibition Phase 1 Composite score,"Rats (male, Simonsen); 1.7-5 min post-formalin",9.2%
same,% Inhibition Phase 2 Composite score,"Rats (male, Simonsen); 10.3-30 min post-formalin",37.4%
same,% Inhibition Phase 2. Licking/biting,"Rats (male, Simonsen); Phase 2",76.1%
